Data published in PubChem BioAssay (NCI).
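In this assay, cells in 96-well plates receive the compound at five concentrations for 48 hours. Endpoints are linearly interpolated between the surrounding concentrations. TGI denotes the concentration required for complete inhibition of growth.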

Experiments:
Test in all cases: inhibition of tumour cell growth, NCI panel, 48 h
DLD-1 colon = test system: DLD-1 colon
HOP-92 NSCLC = test system: HOP-92 NSCLC
SF-295 CNS = test system: SF-295 CNS
MALME-3M melanoma = test system: MALME-3M melanoma
COLO 205 colon = test system: COLO 205 colon
SN12C renal = test system: SN12C renal
UACC-257 melanoma = test system: UACC-257 melanoma
HT29 colon = test system: HT29 colon
SR leukemia = test system: SR leukemia
DMS 273 small cell lung = test system: DMS 273 small cell lung
SK-MEL-2 melanoma = test system: SK-MEL-2 melanoma
A498 renal = test system: A498 renal
SW-620 colon = test system: SW-620 colon
LXFL 529 NSCLC = test system: LXFL 529 NSCLC
CCRF-CEM leukemia = test system: CCRF-CEM leukemia
RPMI-8226 leukemia = test system: RPMI-8226 leukemia
MOLT-4 leukemia = test system: MOLT-4 leukemia
786-0 renal = test system: 786-0 renal
HL-60(TB) leukemia = test system: HL-60(TB) leukemia
HOP-62 NSCLC = test system: HOP-62 NSCLC
XF 498 CNS = test system: XF 498 CNS
EKVX NSCLC = test system: EKVX NSCLC
M19-MEL melanoma = test system: M19-MEL melanoma
SF-539 CNS = test system: SF-539 CNS
M14 melanoma = test system: M14 melanoma
SNB-75 CNS = test system: SNB-75 CNS
CAKI-1 renal = test system: CAKI-1 renal
NCI-H522 lung = test system: NCI-H522 lung
TK-10 renal = test system: TK-10 renal
OVCAR-4 ovarian = test system: OVCAR-4 ovarian
DMS 114 small cell lung = test system: DMS 114 small cell lung
UACC-62 melanoma = test system: UACC-62 melanoma
K-562 leukemia = test system: K-562 leukemia
NCI-H226 lung = test system: NCI-H226 lung
SK-MEL-28 melanoma = test system: SK-MEL-28 melanoma
SK-OV-3 ovarian = test system: SK-OV-3 ovarian
RXF-631 renal = test system: RXF-631 renal
UO-31 renal = test system: UO-31 renal
SNB-78 CNS = test system: SNB-78 CNS
KM12 colon = test system: KM12 colon
NCI-H23 lung = test system: NCI-H23 lung
OVCAR-8 ovarian = test system: OVCAR-8 ovarian
SNB-19 CNS = test system: SNB-19 CNS
OVCAR-3 ovarian = test system: OVCAR-3 ovarian
SF-268 CNS = test system: SF-268 CNS
HCC-2998 colon = test system: HCC-2998 colon
A549 NSCLC = test system: A549 NSCLC
HCT-116 colon = test system: HCT-116 colon
SK-MEL-5 melanoma = test system: SK-MEL-5 melanoma
HCT-15 colon = test system: HCT-15 colon
KM20L2 colon = test system: KM20L2 colon
NCI-H460 lung = test system: NCI-H460 lung
OVCAR-5 ovarian = test system: OVCAR-5 ovarian
IGROV1 ovarian = test system: IGROV1 ovarian
U251 CNS = test system: U251 CNS
LOX IMVI melanoma = test system: LOX IMVI melanoma
RXF 393 renal = test system: RXF 393 renal
ACHN renal = test system: ACHN renal
HOP-18 NSCLC = test system: HOP-18 NSCLC

Compound: CN(C)CCCCC1CCN(CC(=O)N2c3ccccc3NC(=O)c3ccccc32)CC1
- TGI (DLD-1 colon): > 100 µM
- TGI (HOP-92 NSCLC): > 100 µM
- TGI (SF-295 CNS): > 100 µM
- TGI (MALME-3M melanoma): > 100 µM
- TGI (COLO 205 colon): > 100 µM
- TGI (SN12C renal): > 100 µM
- TGI (UACC-257 melanoma): > 100 µM
- TGI (HT29 colon): > 100 µM
- TGI (SR leukemia): > 100 µM
- TGI (DMS 273 small cell lung): > 100 µM
- TGI (SK-MEL-2 melanoma): > 100 µM
- TGI (A498 renal): > 100 µM
- TGI (SW-620 colon): > 100 µM
- TGI (LXFL 529 NSCLC): > 100 µM
- TGI (CCRF-CEM leukemia): > 100 µM
- TGI (RPMI-8226 leukemia): > 100 µM
- TGI (MOLT-4 leukemia): > 100 µM
- TGI (786-0 renal): > 100 µM
- TGI (HL-60(TB) leukemia): > 100 µM
- TGI (HOP-62 NSCLC): > 100 µM
- TGI (XF 498 CNS): > 100 µM
- TGI (EKVX NSCLC): > 100 µM
- TGI (M19-MEL melanoma): > 100 µM
- TGI (SF-539 CNS): > 100 µM
- TGI (M14 melanoma): 72.9 µM
- TGI (SNB-75 CNS): > 100 µM
- TGI (CAKI-1 renal): > 100 µM
- TGI (NCI-H522 lung): > 100 µM
- TGI (TK-10 renal): > 100 µM
- TGI (OVCAR-4 ovarian): > 100 µM
- TGI (DMS 114 small cell lung): > 100 µM
- TGI (UACC-62 melanoma): > 100 µM
- TGI (K-562 leukemia): > 100 µM
- TGI (NCI-H226 lung): > 100 µM
- TGI (SK-MEL-28 melanoma): > 100 µM
- TGI (SK-OV-3 ovarian): > 100 µM
- TGI (RXF-631 renal): > 100 µM
- TGI (UO-31 renal): > 100 µM
- TGI (SNB-78 CNS): > 100 µM
- TGI (KM12 colon): > 100 µM
- TGI (NCI-H23 lung): > 100 µM
- TGI (OVCAR-8 ovarian): > 100 µM
- TGI (SNB-19 CNS): > 100 µM
- TGI (OVCAR-3 ovarian): > 100 µM
- TGI (SF-268 CNS): > 100 µM
- TGI (HCC-2998 colon): > 100 µM
- TGI (A549 NSCLC): > 100 µM
- TGI (HCT-116 colon): > 100 µM
- TGI (SK-MEL-5 melanoma): > 100 µM

Compound: CC(=O)/C=C\C1CC2C=CC1C2 (centres undefined)
- TGI (DLD-1 colon): > 100 µM
- TGI (HOP-92 NSCLC): 79.9 µM
- TGI (SF-295 CNS): > 100 µM
- TGI (MALME-3M melanoma): > 100 µM
- TGI (COLO 205 colon): > 100 µM
- TGI (SN12C renal): > 100 µM
- TGI (DMS 273 small cell lung): > 100 µM
- TGI (SK-MEL-2 melanoma): > 100 µM
- TGI (SW-620 colon): > 100 µM
- TGI (LXFL 529 NSCLC): > 100 µM
- TGI (CCRF-CEM leukemia): 70.3 µM
- TGI (RPMI-8226 leukemia): > 100 µM
- TGI (MOLT-4 leukemia): 66.1 µM
- TGI (786-0 renal): > 100 µM
- TGI (HL-60(TB) leukemia): 99.7 µM
- TGI (HOP-62 NSCLC): > 100 µM
- TGI (HCT-15 colon): > 100 µM
- TGI (EKVX NSCLC): > 100 µM
- TGI (M19-MEL melanoma): > 100 µM
- TGI (KM20L2 colon): > 100 µM
- TGI (SF-539 CNS): > 100 µM
- TGI (M14 melanoma): > 100 µM
- TGI (NCI-H460 lung): > 100 µM
- TGI (SNB-75 CNS): 72.2 µM
- TGI (OVCAR-5 ovarian): > 100 µM
- TGI (TK-10 renal): > 100 µM
- TGI (OVCAR-4 ovarian): > 100 µM
- TGI (DMS 114 small cell lung): 82.8 µM
- TGI (UACC-62 melanoma): > 100 µM
- TGI (IGROV1 ovarian): > 100 µM
- TGI (K-562 leukemia): > 100 µM
- TGI (U251 CNS): > 100 µM
- TGI (SK-OV-3 ovarian): > 100 µM
- TGI (LOX IMVI melanoma): 65.4 µM
- TGI (RXF-631 renal): > 100 µM
- TGI (UO-31 renal): > 100 µM
- TGI (SNB-78 CNS): 73.5 µM
- TGI (KM12 colon): > 100 µM
- TGI (RXF 393 renal): > 100 µM
- TGI (ACHN renal): > 100 µM
- TGI (NCI-H23 lung): > 100 µM
- TGI (OVCAR-8 ovarian): > 100 µM
- TGI (SNB-19 CNS): > 100 µM
- TGI (HOP-18 NSCLC): > 100 µM
- TGI (OVCAR-3 ovarian): > 100 µM
- TGI (SF-268 CNS): 76.1 µM
- TGI (HCC-2998 colon): 73.2 µM
- TGI (A549 NSCLC): > 100 µM
- TGI (HCT-116 colon): 54.5 µM
- TGI (SK-MEL-5 melanoma): > 100 µM

Compound: COC(=O)CCC1(NS(=O)(=O)c2ccc(C)cc2)CCC(C(C)(C)C)CC1 (centres undefined)
- TGI (DLD-1 colon): 65.9 µM
- TGI (HOP-92 NSCLC): 27.1 µM
- TGI (SF-295 CNS): 26.5 µM
- TGI (MALME-3M melanoma): 35.4 µM
- TGI (COLO 205 colon): 26.8 µM
- TGI (SN12C renal): 28.5 µM
- TGI (UACC-257 melanoma): 24.7 µM
- TGI (HT29 colon): 31.8 µM
- TGI (DMS 273 small cell lung): 31.2 µM
- TGI (SK-MEL-2 melanoma): 33.5 µM
- TGI (A498 renal): 28.8 µM
- TGI (SW-620 colon): 37.3 µM
- TGI (LXFL 529 NSCLC): 68.3 µM
- TGI (CCRF-CEM leukemia): 37 µM
- TGI (RPMI-8226 leukemia): 21.4 µM
- TGI (MOLT-4 leukemia): 25.2 µM
- TGI (786-0 renal): 29 µM
- TGI (HL-60(TB) leukemia): 11.8 µM
- TGI (HOP-62 NSCLC): 36.1 µM
- TGI (XF 498 CNS): 30.7 µM
- TGI (M19-MEL melanoma): 25.2 µM
- TGI (SF-539 CNS): 26.2 µM
- TGI (M14 melanoma): 33.7 µM
- TGI (NCI-H460 lung): 92 µM
- TGI (SNB-75 CNS): 41.2 µM
- TGI (CAKI-1 renal): 27.3 µM
- TGI (OVCAR-5 ovarian): 32.8 µM
- TGI (NCI-H522 lung): 21.3 µM
- TGI (TK-10 renal): 65.4 µM
- TGI (OVCAR-4 ovarian): 32.1 µM
- TGI (DMS 114 small cell lung): 20.3 µM
- TGI (UACC-62 melanoma): 26.4 µM
- TGI (IGROV1 ovarian): 41.7 µM
- TGI (K-562 leukemia): 33.7 µM
- TGI (U251 CNS): 29 µM
- TGI (SK-MEL-28 melanoma): 25.3 µM
- TGI (SK-OV-3 ovarian): > 100 µM
- TGI (LOX IMVI melanoma): 38 µM
- TGI (RXF-631 renal): 45.2 µM
- TGI (UO-31 renal): 16 µM
- TGI (SNB-78 CNS): 67.2 µM
- TGI (KM12 colon): 44.7 µM
- TGI (NCI-H23 lung): 29.2 µM
- TGI (OVCAR-8 ovarian): 40.7 µM
- TGI (SNB-19 CNS): 35.6 µM
- TGI (OVCAR-3 ovarian): 23.2 µM
- TGI (HCC-2998 colon): 30.3 µM
- TGI (A549 NSCLC): 73.4 µM
- TGI (HCT-116 colon): 22.2 µM
- TGI (SK-MEL-5 melanoma): 19.3 µM
